Tests used:
Assay type in all cases: in vivo
[1] = tested on: redroot pigweed (Amaranthus retroflexus, AMARE); assay: Pre-emerge test, greenhouse herbicide activity screening; conditions: phytotoxicity rating 0-100, 14 days after application
Summary of the method: (§1)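 Compounds in acetone were track-sprayed at 15-1000 g ai/ha (187 l/ha) on sandy loam pots: pre-emerge one day after seeding, post-emerge at 2-3 leaf stage with 0.25% v/v non-ionic surfactant. Phytotoxicity was rated 14 days later on a 0 (no damage) to 100 (complete death) scale.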

[2] = tested on: field corn (Zea mays L., var. Dekalb 535, CORN); assay: Post-emerge test, crop safety; conditions: post-emerge, 14 days after application, rating scale 0-100
Summary of the method: (§2)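 Applied at 15–1000 g ai/ha from acetone in 187 l/ha spray volume. Post-emergence applications included 0.25% v/v non-ionic surfactant and reached plants sown 8–21 days before. Pre-emergence applications were incorporated by surface watering. Efficacy or crop damage was rated on a 0–100 scale after 14 days.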

[3] = tested on: upland rice (Oryza sp., var. Tebonnet, RICE); assay: Post-emerge test, crop safety; conditions: post-emerge, 14 days after application, rating scale 0-100
Summary of the method: as §2

[4] = tested on: barnyardgrass (Echinochloa crus-galli, ECHCG); assay: Pre-emerge test, greenhouse herbicide activity screening; conditions: phytotoxicity rating 0-100, 14 days after application
Summary of the method: as §2

[5] = tested on: ivyleaf morningglory (Ipomoea hederacea, IPOHE); assay: as above; conditions: phytotoxicity rating 0-100, 14 days after application
Summary of the method: as §2

[6] = tested on: large crabgrass (Digitaria sanguinalis, DIGSA); assay: as above; conditions: phytotoxicity rating 0-100, 14 days after application
Summary of the method: as §2

[7] = tested on: green foxtail (Setaria viridis, SETVI); assay: as above; conditions: phytotoxicity rating 0-100, 14 days after application
Summary of the method: as §2

[8] = tested on: sicklepod (Cassia obtusifolia, CASOB); assay: as above; conditions: phytotoxicity rating 0-100, 14 days after application
Summary of the method: as §2

[9] = tested on: velvetleaf (Abutilon theophrasti, ABUTH); assay: as above; conditions: phytotoxicity rating 0-100, 14 days after application
Summary of the method: as §2

[10] = tested on: common ragweed (Ambrosia artemisizfolia L., AMBEL); assay: as above; conditions: phytotoxicity rating 0-100, 14 days after application
Summary of the method: as §2

[11] = tested on: johnsongrass (Sorghum halepense, SORHA); assay: as above; conditions: phytotoxicity rating 0-100, 14 days after application
Summary of the method: as §2

[12] = tested on: lambsquarters (Chenopodium album, CHEAL); assay: as above; conditions: phytotoxicity rating 0-100, 14 days after application
Summary of the method: as §2

[13] = tested on: barnyardgrass (Echinochloa crus-galli, ECHCG); assay: Post-emerge test, greenhouse herbicide activity screening; conditions: post-emerge, 14 days after application, rating scale 0-100
Summary of the method: as §1

[14] = tested on: ivyleaf morningglory (Ipomoea hederacea, IPOHE); assay: as above; conditions: post-emerge, 14 days after application, rating scale 0-100
Summary of the method: as §1

[15] = tested on: large crabgrass (Digitaria sanguinalis, DIGSA); assay: as above; conditions: post-emerge, 14 days after application, rating scale 0-100
Summary of the method: as §1

[16] = tested on: green foxtail (Setaria viridis, SETVI); assay: as above; conditions: post-emerge, 14 days after application, rating scale 0-100
Summary of the method: as §1

[17] = tested on: redroot pigweed (Amaranthus retroflexus, AMARE); assay: as above; conditions: post-emerge, 14 days after application
Summary of the method: as §1

[18] = tested on: sicklepod (Cassia obtusifolia, CASOB); assay: as above; conditions: post-emerge, 14 days after application, rating scale 0-100
Summary of the method: as §1

[19] = tested on: velvetleaf (Abutilon theophrasti, ABUTH); assay: as above; conditions: post-emerge, 14 days after application, rating scale 0-100
Summary of the method: as §1

[20] = tested on: common ragweed (Ambrosia artemisizfolia L., AMBEL); assay: as above; conditions: post-emerge, 14 days after application, rating scale 0-100
Summary of the method: as §1

[21] = tested on: johnsongrass (Sorghum halepense, SORHA); assay: as above; conditions: post-emerge, 14 days after application, rating scale 0-100
Summary of the method: as §1

[22] = tested on: lambsquarters (Chenopodium album, CHEAL); assay: as above; conditions: post-emerge, 14 days after application, rating scale 0-100
Summary of the method: as §1

[23] = tested on: field corn (Zea mays L., var. Dekalb 535, CORN); assay: Pre-emerge test, crop safety; conditions: crop damage rating 0-100, 14 days after application
Summary of the method: (§3)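 Rating: 0–100 visual injury, 14 DAA. Application: acetone, 187 l/ha, 15–1000 g ai/ha, flat-fan track sprayer with nozzle 40–45 cm above soil or canopy. Post-emerge runs used 0.25% v/v surfactant on 2–3 leaf plants.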

[24] = tested on: upland rice (Oryza sp., var. Tebonnet, RICE); assay: Pre-emerge test, crop safety; conditions: crop damage rating 0-100, 14 days after application
Summary of the method: as §3

COC(=O)N(C(=O)OC)c1c(OC)c(Cl)cc(F)c1-n1c(=O)cc(C(F)(F)F)n(C)c1=O [4-2]
Pre-emerge Herbicidal Activity AMARE ([1]; 63 g ai/ha): 100
Pre-emerge Herbicidal Activity AMARE ([1]; 250 g ai/ha): 100
phytotoxicity rating CORN (crop damage) ([2]; 63 g ai/ha): 0
phytotoxicity rating CORN (crop damage) ([2]; 250 g ai/ha): 10
phytotoxicity rating RICE (crop damage) ([3]; 63 g ai/ha): 0
phytotoxicity rating RICE (crop damage) ([3]; 250 g ai/ha): 30
Pre-emerge Herbicidal Activity ECHCG ([4]; 63 g ai/ha): 0
Pre-emerge Herbicidal Activity ECHCG ([4]; 250 g ai/ha): 80
Pre-emerge Herbicidal Activity IPOHE ([5]; 63 g ai/ha): 0
Pre-emerge Herbicidal Activity IPOHE ([5]; 250 g ai/ha): 100
Pre-emerge Herbicidal Activity DIGSA ([6]; 63 g ai/ha): 40
Pre-emerge Herbicidal Activity DIGSA ([6]; 250 g ai/ha): 90
Pre-emerge Herbicidal Activity SETVI ([7]; 63 g ai/ha): 70
Pre-emerge Herbicidal Activity SETVI ([7]; 250 g ai/ha): 100
Pre-emerge Herbicidal Activity CASOB ([8]; 63 g ai/ha): 0
Pre-emerge Herbicidal Activity CASOB ([8]; 250 g ai/ha): 80
Pre-emerge Herbicidal Activity ABUTH ([9]; 63 g ai/ha): 100
Pre-emerge Herbicidal Activity ABUTH ([9]; 250 g ai/ha): 100
Pre-emerge Herbicidal Activity AMBEL ([10]; 63 g ai/ha): 30
Pre-emerge Herbicidal Activity AMBEL ([10]; 250 g ai/ha): 100
Pre-emerge Herbicidal Activity SORHA ([11]; 63 g ai/ha): 0
Pre-emerge Herbicidal Activity SORHA ([11]; 250 g ai/ha): 70
Pre-emerge Herbicidal Activity CHEAL ([12]; 63 g ai/ha): 100
Pre-emerge Herbicidal Activity CHEAL ([12]; 250 g ai/ha): 100
phytotoxicity rating ECHCG ([13]; 63 g ai/ha): 0
phytotoxicity rating ECHCG ([13]; 250 g ai/ha): 0
phytotoxicity rating IPOHE ([14]; 63 g ai/ha): 70
phytotoxicity rating IPOHE ([14]; 250 g ai/ha): 100
phytotoxicity rating DIGSA ([15]; 63 g ai/ha): 0
phytotoxicity rating DIGSA ([15]; 250 g ai/ha): 0
phytotoxicity rating SETVI ([16]; 63 g ai/ha): 0
phytotoxicity rating SETVI ([16]; 250 g ai/ha): 20
phytotoxicity rating AMARE ([17]; 63 g ai/ha, rating scale 0-100 (0 no damage, 100 complete death)): 50
phytotoxicity rating AMARE ([17]; 250 g ai/ha, rating scale 0-100): 85
phytotoxicity rating CASOB ([18]; 63 g ai/ha): 0
phytotoxicity rating CASOB ([18]; 250 g ai/ha): 40
phytotoxicity rating ABUTH ([19]; 63 g ai/ha): 70
phytotoxicity rating ABUTH ([19]; 250 g ai/ha): 100
phytotoxicity rating AMBEL ([20]; 63 g ai/ha): 0
phytotoxicity rating AMBEL ([20]; 250 g ai/ha): 30
phytotoxicity rating SORHA ([21]; 63 g ai/ha): 0
phytotoxicity rating SORHA ([21]; 250 g ai/ha): 0
phytotoxicity rating CHEAL ([22]; 63 g ai/ha): 40
phytotoxicity rating CHEAL ([22]; 250 g ai/ha): 95
Pre-emerge Herbicidal Activity CORN ([23]; 63 g ai/ha): 0
Pre-emerge Herbicidal Activity CORN ([23]; 250 g ai/ha): 5
Pre-emerge Herbicidal Activity RICE ([24]; 63 g ai/ha): 10
Pre-emerge Herbicidal Activity RICE ([24]; 250 g ai/ha): 20

— patent US6355799B1, “Substituted benzene compounds, process for their preparation, and herbicidal and defoliant compositions containing them” (ISK Americas Incorporated, priority 1997, dated 2002)
